Data reported in patent US12391664B2, “GluN2C/D subunit selective antagonists of the N-methyl-D-aspartate receptor” (Emory University, priority 2018, dated 2025).

Tests used:
[1] = target: T1, recombinant rat GluN1/GluN2A (Rattus norvegicus, UniProt Q00959); assay: Two-electrode voltage-clamp recordings in Xenopus laevis oocytes, GluN2A; type: cell-based; conditions: oocytes, 100 μM glutamate and 30 μM glycine
T1 construct: expressed in transfected cells; host or cells: Xenopus laevis oocytes injected with cRNA (GluN1:GluN2 ratio 1:2)
Summary of the method: (§1)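 Oocytes injected with rat GluN1/GluN2 cRNA (1:2), held 2–5 days at 15–17 °C, clamped at −40 mV in Ba2+-containing recording solution, pH 7.4, 23 °C. Compounds applied (up to 100 μM) with 100 μM glutamate plus 30 μM glycine. IC50 and Hill slope from concentration-response fits of averaged current inhibition.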

[2] = target: T2, recombinant rat GluN1/GluN2B (Rattus norvegicus, UniProt Q00960); assay: Two-electrode voltage-clamp recordings in Xenopus laevis oocytes, GluN2B; type: cell-based; conditions: oocytes, 100 μM glutamate and 30 μM glycine
T2 construct: expressed in transfected cells; host or cells: Xenopus laevis oocytes injected with cRNA (GluN1:GluN2 ratio 1:2)
Summary of the method: as §1

[3] = target: T3, recombinant rat GluN1/GluN2C (Rattus norvegicus, UniProt Q00961); assay: Two-electrode voltage-clamp recordings in Xenopus laevis oocytes, GluN2C; type: cell-based; conditions: oocytes, 100 μM glutamate and 30 μM glycine
T3 construct: expressed in transfected cells; host or cells: Xenopus laevis oocytes injected with cRNA (GluN1:GluN2 ratio 1:2)
T3 sequence (Q00961 20-1237, other chains not shown): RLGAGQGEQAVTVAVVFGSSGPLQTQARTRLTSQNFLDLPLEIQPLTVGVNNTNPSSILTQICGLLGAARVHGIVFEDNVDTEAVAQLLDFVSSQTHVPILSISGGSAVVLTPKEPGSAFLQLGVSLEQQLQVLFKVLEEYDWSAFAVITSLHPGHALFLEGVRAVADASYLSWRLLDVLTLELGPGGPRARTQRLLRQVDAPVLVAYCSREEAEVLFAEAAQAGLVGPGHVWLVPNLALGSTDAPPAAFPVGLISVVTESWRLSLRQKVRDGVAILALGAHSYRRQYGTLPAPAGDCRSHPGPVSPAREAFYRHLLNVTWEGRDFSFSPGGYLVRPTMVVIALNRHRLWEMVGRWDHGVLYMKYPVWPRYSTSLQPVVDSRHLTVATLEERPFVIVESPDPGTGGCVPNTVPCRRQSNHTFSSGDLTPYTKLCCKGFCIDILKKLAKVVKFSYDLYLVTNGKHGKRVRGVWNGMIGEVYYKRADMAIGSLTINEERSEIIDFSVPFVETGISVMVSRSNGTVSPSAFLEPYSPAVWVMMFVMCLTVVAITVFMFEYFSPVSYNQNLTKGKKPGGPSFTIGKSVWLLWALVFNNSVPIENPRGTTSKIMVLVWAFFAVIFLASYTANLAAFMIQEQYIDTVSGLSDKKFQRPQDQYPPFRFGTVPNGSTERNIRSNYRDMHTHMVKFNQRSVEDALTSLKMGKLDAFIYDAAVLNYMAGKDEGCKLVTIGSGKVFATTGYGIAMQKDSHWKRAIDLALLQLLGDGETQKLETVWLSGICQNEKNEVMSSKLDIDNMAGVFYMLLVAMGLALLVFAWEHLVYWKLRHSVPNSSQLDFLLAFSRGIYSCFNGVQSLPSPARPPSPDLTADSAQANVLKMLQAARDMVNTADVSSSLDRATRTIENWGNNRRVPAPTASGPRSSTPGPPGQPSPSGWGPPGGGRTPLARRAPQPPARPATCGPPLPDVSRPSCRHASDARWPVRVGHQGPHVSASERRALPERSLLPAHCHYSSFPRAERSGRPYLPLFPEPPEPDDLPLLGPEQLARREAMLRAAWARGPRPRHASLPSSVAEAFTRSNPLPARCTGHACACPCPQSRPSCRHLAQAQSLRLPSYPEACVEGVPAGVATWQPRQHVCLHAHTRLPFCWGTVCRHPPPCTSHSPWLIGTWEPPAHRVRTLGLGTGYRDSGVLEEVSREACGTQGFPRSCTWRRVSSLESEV
Summary of the method: as §1

[4] = target: T4, recombinant rat GluN1/GluN2D (Rattus norvegicus, UniProt Q62645); assay: Two-electrode voltage-clamp recordings in Xenopus laevis oocytes, GluN2D; type: cell-based; conditions: oocytes, 100 μM glutamate and 30 μM glycine
T4 construct: expressed in transfected cells; host or cells: Xenopus laevis oocytes injected with cRNA (GluN1:GluN2 ratio 1:2)
T4 sequence (Q62645 28-1323, other chains not shown): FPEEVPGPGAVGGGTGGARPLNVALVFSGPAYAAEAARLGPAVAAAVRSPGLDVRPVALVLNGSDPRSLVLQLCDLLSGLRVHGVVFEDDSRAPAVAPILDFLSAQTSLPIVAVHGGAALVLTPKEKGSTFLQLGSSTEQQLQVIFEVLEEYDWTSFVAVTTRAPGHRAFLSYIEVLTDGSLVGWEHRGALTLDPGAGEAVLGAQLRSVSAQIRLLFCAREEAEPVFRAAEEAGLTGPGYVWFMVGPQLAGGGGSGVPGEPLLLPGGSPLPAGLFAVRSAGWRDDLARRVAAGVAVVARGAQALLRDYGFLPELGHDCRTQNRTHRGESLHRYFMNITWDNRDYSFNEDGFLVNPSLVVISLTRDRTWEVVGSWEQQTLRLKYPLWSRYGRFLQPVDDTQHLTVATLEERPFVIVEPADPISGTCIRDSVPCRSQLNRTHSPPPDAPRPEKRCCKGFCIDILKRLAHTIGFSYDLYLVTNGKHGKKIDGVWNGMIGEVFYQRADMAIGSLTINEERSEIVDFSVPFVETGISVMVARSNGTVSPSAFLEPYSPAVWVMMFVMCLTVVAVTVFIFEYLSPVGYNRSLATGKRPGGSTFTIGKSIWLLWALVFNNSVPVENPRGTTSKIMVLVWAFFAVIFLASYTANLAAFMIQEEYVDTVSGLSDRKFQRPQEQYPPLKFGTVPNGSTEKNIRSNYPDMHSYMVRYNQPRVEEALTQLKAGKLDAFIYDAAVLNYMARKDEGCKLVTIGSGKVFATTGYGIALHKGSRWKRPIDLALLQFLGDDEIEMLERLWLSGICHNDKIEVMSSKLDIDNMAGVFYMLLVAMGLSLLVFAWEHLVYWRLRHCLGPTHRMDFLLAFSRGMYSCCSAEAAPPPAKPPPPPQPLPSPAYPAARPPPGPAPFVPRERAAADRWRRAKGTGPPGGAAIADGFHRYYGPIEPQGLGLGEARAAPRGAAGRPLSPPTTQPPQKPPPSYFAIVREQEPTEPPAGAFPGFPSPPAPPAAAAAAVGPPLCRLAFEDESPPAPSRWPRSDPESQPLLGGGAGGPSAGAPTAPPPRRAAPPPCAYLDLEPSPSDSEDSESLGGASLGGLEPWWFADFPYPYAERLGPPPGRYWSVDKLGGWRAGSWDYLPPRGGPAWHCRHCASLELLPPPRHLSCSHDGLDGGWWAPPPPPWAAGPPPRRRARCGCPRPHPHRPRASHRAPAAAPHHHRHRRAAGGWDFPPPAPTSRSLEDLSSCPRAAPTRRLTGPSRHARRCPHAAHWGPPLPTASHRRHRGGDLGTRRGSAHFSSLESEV
Summary of the method: as §1

[5] = tested on: recombinant GluN2A-D subunits; assay: Two-electrode voltage-clamp recordings, statements on all receptors; type: cell-based, rat
Method: All target compounds were evaluated for activity by the Traynelis laboratory at Emory University using two-electrode voltage-clamp recordings performed in Xenopus laevis oocytes expressing recombinant GluN2A-D subunits (Table 1). […] Two ester compounds 997-65 and 997-66 also performed no inhibition at GluN2A to GluN2D receptors. […] Consequently, for the compounds that Acker et al. already published, it was necessary to increase the concentration to 100 μM when collecting data for a concentration effect curve. […] Therefore, under this condition, we can only conclude that compound 997-67 remained potent at GluN2C/D-containing receptors, but its selectivity over GluN2A- and GluN2B-containing receptors could not be compared to 997-57. […] Finally, replacing the carboxylic acid to the bio-isostere amide yielded compounds 997-96 and 997-115, which dropped the potency 2- to 4-fold in comparison to their corresponding acids 997-74 and 997-114.
Two-electrode voltage-clamp recordings were performed in Xenopus laevis oocytes that were injected with mRNA to express recombinant rat GluN1/GluN2A, GluN1/GluN2B, GluN1/GluN2C, and GluN1/GluN2D. The recordings using unfertilized oocytes from Xenopus laevis were permitted by Emory University Institutional Animal Care and Use Committee (IACUC). An automatic injector (Nanoject II, Drummond Scientific) was used for cRNA injection using the pipettes filled with mineral oil. The cRNA that transcribed in vitro via the mMessage Machine kit (Ambion) was diluted with nuclease-free water, and then injected at GluN1/GluN2 with a ratio of 1:2. The oocytes were stored in Barth's solution that contained 88 mM NaCl, 5.0 mM Tris-HCl, 2.4 mM NaHCO3, 1.0 mM KCl, 0.84 mM MgSO4, 0.41 mM CaCl2, 0.33 mM Ca(NO3)2, 0.1 mg/ml gentamycin sulfate, 1.0 U/ml penicillin, and 1 μg/ml streptomycin at a pH of 7.4 and temperatures of 15-17° C. for two to five days before the two-electrode voltage-clamp recordings. When recording, the oocytes were placed in a perfusion chamber and continually washed with the recording solution comprised of 90 mM NaCl, 1.0 mM KCl, 0.50 mM BaCl2, 0.005 mM EDTA, and 10 mM HEPES at a pH of 7.4 and a temperature of 23° C. Glass electrodes with a tip resistance of 0.5 to 2.5 MΩ were obtained from thin-walled glass capillary tubes. Voltage electrodes and current electrodes were filled with 0.3 M and 3.0 M KCl, respectively. The recordings were executed with the oocytes membrane potential holding at −40 m V by an OC-725 amplifier (Warner Instrument Co). All compounds were dissolved in dimethyl sulfoxide (DMSO) as 20 mM stock solutions and future diluted to reach the desired concentration (0.05-0.5% (vol/vol) DMSO) in recording solution comprised of 30 μM glycine and 100 μM glutamate. Each compound was recorded 3-7 times in the least 4 oocytes from at least 2 different Xenopus laevis.
To evaluate the inhibition of compounds, the concentration-response curve was fitted with the average two-electrode voltage-clamp recording results with the equation
[formula] • where IC50 is the concentration of compounds that inhibit half maximal of the current response and N is the Hill slope.

GluN2C- and GluN2D = conditions: GluN2C- and GluN2D-selective potentiator; read-out: EC50 (potentiation); cited from earlier work
[6] = target: NMDA receptors that contain GluN2B (Homo sapiens, UniProt Q05586+Q13224); conditions: cited from earlier work
NMDA receptors that contain GluN2B, sequence (Q13224 27-1484, other chains not shown): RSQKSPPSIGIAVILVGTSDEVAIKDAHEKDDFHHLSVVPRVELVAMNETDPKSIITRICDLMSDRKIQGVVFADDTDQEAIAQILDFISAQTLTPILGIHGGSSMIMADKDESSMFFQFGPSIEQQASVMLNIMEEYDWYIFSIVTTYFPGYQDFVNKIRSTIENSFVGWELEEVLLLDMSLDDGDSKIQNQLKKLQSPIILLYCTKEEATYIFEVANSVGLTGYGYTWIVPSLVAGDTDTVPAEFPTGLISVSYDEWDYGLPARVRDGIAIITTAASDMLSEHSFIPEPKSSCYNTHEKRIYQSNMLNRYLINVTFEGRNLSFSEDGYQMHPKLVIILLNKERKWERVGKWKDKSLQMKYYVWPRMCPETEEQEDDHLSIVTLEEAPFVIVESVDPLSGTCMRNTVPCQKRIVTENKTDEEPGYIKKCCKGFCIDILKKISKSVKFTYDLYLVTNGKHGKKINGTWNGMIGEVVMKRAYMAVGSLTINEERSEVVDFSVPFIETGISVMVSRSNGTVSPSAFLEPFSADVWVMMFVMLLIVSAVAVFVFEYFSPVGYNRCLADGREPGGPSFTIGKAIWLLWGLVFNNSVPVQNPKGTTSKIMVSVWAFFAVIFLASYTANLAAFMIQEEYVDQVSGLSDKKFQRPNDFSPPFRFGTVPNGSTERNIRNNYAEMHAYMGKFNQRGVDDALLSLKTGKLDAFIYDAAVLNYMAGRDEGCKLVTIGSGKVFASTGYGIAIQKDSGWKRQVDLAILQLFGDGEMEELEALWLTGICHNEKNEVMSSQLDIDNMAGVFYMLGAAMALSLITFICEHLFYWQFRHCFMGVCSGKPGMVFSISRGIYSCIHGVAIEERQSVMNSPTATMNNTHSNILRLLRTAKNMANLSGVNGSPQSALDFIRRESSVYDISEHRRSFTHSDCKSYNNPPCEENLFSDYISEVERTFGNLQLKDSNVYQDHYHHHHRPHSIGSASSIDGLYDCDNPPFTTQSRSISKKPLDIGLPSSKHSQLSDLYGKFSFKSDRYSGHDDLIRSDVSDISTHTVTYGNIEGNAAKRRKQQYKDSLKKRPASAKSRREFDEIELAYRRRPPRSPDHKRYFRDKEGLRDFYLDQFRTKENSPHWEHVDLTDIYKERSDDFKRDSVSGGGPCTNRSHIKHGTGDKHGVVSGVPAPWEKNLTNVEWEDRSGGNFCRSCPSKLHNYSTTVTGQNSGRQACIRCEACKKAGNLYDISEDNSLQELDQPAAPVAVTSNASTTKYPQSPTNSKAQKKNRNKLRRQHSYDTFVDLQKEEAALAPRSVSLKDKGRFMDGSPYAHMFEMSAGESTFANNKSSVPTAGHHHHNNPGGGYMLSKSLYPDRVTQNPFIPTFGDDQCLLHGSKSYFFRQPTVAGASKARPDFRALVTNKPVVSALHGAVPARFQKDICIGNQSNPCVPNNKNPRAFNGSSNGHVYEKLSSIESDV

GluN2C subunit = GluN2C subunit (Homo sapiens, UniProt Q14957); conditions: read-out: EC50 (potentiation at GluN2C subunit); cited from earlier work

O=C(O)CCC(=O)N1N=C(c2ccccc2-c2ccc(Cl)cc2)CC1c1cccc2c1OCO2 (centres unmarked) [997-122, 4-(5-(benzo[d][1,3]dioxol-4-yl)-3-(4′-chloro-[1,1′-biphenyl]-2-yl)-4,5-dihydro-1H-pyrazol-1-yl)-4-oxobutanoic acid]
GluN2A IC50 [1]: NE (NE indicates less than 50% inhibition at 30 μM.) | GluN2B IC50 [2]: NE (NE indicates less than 50% inhibition at 30 μM.) | GluN2C IC50 [3]: NE (NE indicates less than 50% inhibition at 30 μM.) | GluN2D IC50 [4]: NE (NE indicates less than 50% inhibition at 30 μM.) | activity at all receptors (GluN2A to GluN2D), in words [5]: inactive

COc1ccc(OCC2c3cc(OC)c(OC)cc3CCN2C(=O)c2cccc(Cl)c2)cc1 (centres unmarked) [CIQ, (3-chlorophenyl)(6,7-dimethoxy-1-((4-methoxyphenoxy)methyl)3,4-dihydroisoquinolin-2(1H)-yl)methanone]
EC50 (GluN2C- and GluN2D): 3 to 6 µM

CC(C(O)c1ccc(O)cc1)N1CCC(Cc2ccccc2)CC1 (centres unmarked) [Ifenprodil]
fold more potent at GluN2B than at GluN2A, GluN2C or GluN2D containing receptors [6]: approximately 200 fold

COC(=O)c1ccc(C2C(C(C)=O)=C(O)C(=O)N2CCc2c(C)[nH]c3ccccc23)cc1 (centres unmarked) [PYD-106]
EC50 (GluN2C subunit): 13 µM
